Assay results from publication PMC4245888 (Frontiers in Pharmacology, 2014).

Experiments:
[1] = Pharmacokinetics of total EZE in plasma, single-dose three-period crossover study, EZE alone vs ATO–EZE combination; assay type: in vivo, human; details: EZE 10 mg coadministered with ATO 80 mg; bioequivalence-based hypothesis
Method: Thirty six healthy Mexicans volunteers of both gender who were between the ages of 18 and 45 (mean ± SEM: 24.71 ± 0.03 years), had heights between 140.0 and 190.0 cm (163.0 ± 0.005 cm), and weighed between 43.50 and 79.50 kg (62.15 ± 1.9 kg) were enrolled in the study. The study protocol was approved by an independent ethics committee as well as by the regulatory authority in Mexico (COFEPRIS), and it was conducted following the ethical principles described in the Declaration of Helsinki. […]
For the determination of both molecules were developed an analytical method, where only once plasma processing is used to obtain both molecules, but the quantification of the analytes was performed on two separate injections ATO in positive electrospray ionization ESI (+) mode and EZE in negative electrospray ionization ESI (-) mode. […]
Chromatographic analysis was performed on UPLC-MS/MS system consisting of Acquity UPLC coupled to a tandem mass spectrometry detector XEVO-TQS (Waters, USA) and Acquity UPLC BEH C18 (1.7 μm, 2.1 × 100 mm) column (Waters, USA). […] MRM data were acquired and analyzed through MassLynx software (Waters, USA). […]

[2] = cited from earlier work; for terminal elimination half-life: the drug and its metabolite, ref Ezzet et al., 2001
[3] = tested on: major drug metabolizing enzymes (CYP450); design: method as in van Heek and Davis, 2002; details: ref van Heek and Davis, 2002; cited from earlier work
[4] = tested on: cholesterol and triglyceride levels; details: cited from earlier work
[5] = cited from earlier work
[6] = dose of 10 mg, ref Kosoglou et al. (2002)
[7] = hyperlipidemic patients, dose dependent, ref Nawrocki et al., 1995, Heinonen et al., 1996
[8] = oral administration, ref van Heek et al., 2000, Patrick et al., 2002, Malloy and Kane, 2007, Mahley and Bersot, 2008

Structure (SMILES) | pharmacokinetic drug–drug interaction (on EZE) [1] | Cmax of EZE [2, 6] [ng/mL] | area under the curve to the end point of EZE [2, 6] [ng·h/mL] | fraction biotransformed into glucuronide active metabolite ([2]; ref Kosoglou et al. (2002)) [%] | terminal elimination half-life [2] [h] | effect on the activity of major drug metabolizing enzymes (CYP450) [3] | reduction of colesterol and triglycerides, significantly larger than equivalent doses of other statin drugs ([4]; P ≤ 0.01, ref Jones et al., 1998) | lowering of cholesterol levels [4, 7] | lowering of triglyceride levels [4, 7] | intra-subject variability ([5]; ref European Medicines Agency [EMEA] (2010)) [%] | share of circulating inhibitory activity for HMG-CoA reductase attributed to active metabolites (ortho- and parahydroxy ATO) ([5]; ref Pfizer Inc. Lipitor®, 2009) | time of first peak blood level (dual peak, enterohepatic recirculation) [2, 8] [h] | time of second peak blood level (dual peak, enterohepatic recirculation) [2, 8] [h]
O=C1[C@H](CC[C@H](O)c2ccc(F)cc2)[C@@H](c2ccc(O)cc2)N1c1ccc(F)cc1 [EZE, Ezetimibe] | no relevant pharmacokinetic drug–drug interaction | 64.2 to 73.6 | 440 to 722 | > 80 | 20 to 30 | no effect |  |  |  |  |  |  | 
CC(C)c1c(C(=O)Nc2ccccc2)c(-c2ccccc2)c(-c2ccc(F)cc2)n1CC[C@@H](O)C[C@@H](O)CC(=O)O [ATO, Atorvastatin] |  |  |  |  |  |  | 38–51% | 25–61% | 9–61% | > 30 | Approximately 70% |  | 
O=C(O)[C@H]1O[C@@H](Oc2ccc([C@@H]3[C@@H](CC[C@H](O)c4ccc(F)cc4)C(=O)N3c3ccc(F)cc3)cc2)[C@H](O)[C@@H](O)[C@@H]1O [EZE-G] |  |  |  |  | 20 to 30 |  |  |  |  |  |  | 4 to 6 | 10 to 12
